Experimental data: publication PMC4348493, “CD47 Agonist Peptides Induce Programmed Cell Death in Refractory Chronic Lymphocytic Leukemia B Cells via PLCγ1 Activation: Evidence from Mice and Humans” (PLoS Medicine, 2015)
Entries after “also recorded” stand apart in the source; their conditions may differ. Ends that are not written are not given here.

Columns and labels:
[1] = test system: CLL B lymphocytes (CD19+/CD5+); conditions: for Effect of pre-incubation on PKHB1-mediated cell death in CLL cells: added 30 min before PKHB1 200 μM, BAPTA 5 mM, BAPTA-AM 20 μM, 2-APB 60 μM, dantrolene 40 μM, U73122 200 nM, hSIRPα-Fc 15 μg/ml; for Cytotoxicity / PCD in CLL cells (Annexin-V and PI co-positivity): 200-μM peptides, 2 h of treatment (Fig 1D, 1E)
Procedure: (§1) Mononuclear cells were purified from blood samples using a standard Ficoll-Hypaque gradient, and B cells were positively or negatively selected by magnetic microbeads coupled either to an anti-CD19 monoclonal antibody (positive selection) or to anti-CD16,-CD3, and-CD14 monoclonal antibodies (negative depletion) (Miltenyi Biotech). […] B lymphocytes, MEC-1, and M210B4 bone marrow stromal cells (ATCC) were cultured in complete medium (RPMI 1640 supplemented with 10% fetal calf serum, 2 mM L-glutamine, and 100 U/ml penicillin-streptomycin). In selected experiments, CLL cells were cultured in Ca^2+-free medium (RPMI 1640 without calcium, supplemented with dialyzed 10% fetal calf serum) prior to the induction of cell death.
(§2) Annexin-V-APC (0.1 μg/ml; BD Biosciences) was used for the assessment of phosphatidylserine exposure, propidium iodide (PI, 0.5 μg/ml) for cell viability analysis, and tetramethylrhodamine ethyl ester (TMRE, 20 nM) for mitochondrial transmembrane potential (ΔΨm) quantification. PCD was recorded in a FACSCanto II (BD Biosciences) in the total population (10,000 cells), and data were analyzed using FlowJo software. Chymotrypsin-like serine protease (serpase) or caspase cytofluorometric detection was performed with SerPase or Caspase activity kits from Imgenex (IMI-2301 and IMI-2315). Residual and leukemic B cells from CLL patients were discriminated from the mononuclear blood fraction by double labeling with anti-CD19 PerCP-Cyc5.5 (clone SJ25C1; BD Biosciences) and anti-CD5-PE-Cy7 mAb (clone L17F12; BD Biosciences). T cells from CLL patients were identified by a double anti-CD19 PerCP-Cyc5.5 and anti-CD3-PE-Cy7 (clone SK7; BD Biosciences) staining. Calreticulin cell surface exposure was recorded with anti-calreticulin-PE (clone FMC75; Assay Designs). […] A QuantiBRITE flow cytometry system (BD Biosciences) was used to assess the number of CD47 molecules expressed on normal and CLL B lymphocytes.
To induce PCD, 1 × 10^6 cells/ml were treated for 2 h with PKHB1 (200 μM), 4N1K (300 μM), 4NGG (300 μM), or an anti-CD47 monoclonal antibody ([…], clone B6H12 in soluble or immobilized conditions). To provide pro-survival microenvironment signals, CLL cells were pre-incubated with sCD40L (5 μg/ml) and IL-4 (20 ng/ml) or co-cultured with the M210B4 bone marrow stromal cell line (ATCC) before death was induced. To control for caspase-dependent apoptosis, cells were incubated for 12 h with etoposide (250 μM). For the inhibition assays, BAPTA-AM (20 μM); BAPTA (5 mM); Ru360 (750 nM); dantrolene (40 μM); 2-aminoethoxydiphenyl borate (2-APB, 60 μM); U73122 (200 nM); the broad spectrum caspase inhibitors Q-VD-OPh (QVD, 10 μM) and z-VAD-FMK (50 μM); the specific caspase inhibitors z-DEVD-FMK (50 μM, caspase-3/7), z-LEHD-FMK (50 μM, […]), and z-IETD-FMK (50 μM, […]); the serpase inhibitor TPCK (20 μM); or the fusion protein hSIRPα-Fc (15 μg/ml) was added 30 min before inducing PCD.

[2] = Peptide degradation assay in human serum (HPLC); format: in vitro ADME; conditions: peptide 10 mg/ml in 1:4 human serum/RPMI 1640, 37°C, absorbance 220 nm
Procedure: 4N1K or PKHB1 (10 mg/ml), diluted in a 1:4 human serum/RPMI 1640 mixture, was incubated at 37°C for different lengths of time, then mixed with ethanol and 5 ml of 1 M NaOH and incubated at 4°C for at least 15 min to precipitate serum proteins. The supernatant was collected and injected in an HPLC system, and the soluble peptide was eluted by a linear gradient of 5% to 50% ACN (0.1% [v/v] TFA in acetonitrile) in aqueous 0.1% (v/v) TFA. The concentration of the peptide was calculated by the integration of the absorbance at 220 nm as a function of the retention time.

[3] = Mice toxicity studies (hematology, kidney and liver histology); format: in vivo, mouse (NSG; conditions: weekly intraperitoneal injection, 10 mg/kg, 3 wk, NSG or C57BL/6 mice (S9 Fig)
Procedure: In mice toxicity studies, we used the same injection protocol as in xenografted NSG mice. The hematological parameters were monitored in blood drawn from the retro-orbital plexus from either vehicle- (PBS) or PKHB1-treated wild-type mice (C57BL/6) with an MS9–5 analyzer (Melet Schloesing). Kidneys and livers (24 h after the third injection of PBS or PKHB1) were fixed and embedded in paraffin. Paraffin sections ([…] thick) of kidney and liver were deparaffinized and rehydrated before staining with periodic acid—Schiff and hematoxylin-eosin, respectively.

MEC-1 tumors = experiment: CLL-xenograft model: MEC-1 tumors in NSG mice; format: in vivo, mouse (NOD/scid gamma); conditions: weekly intraperitoneal injection; n = 8 per group (Fig 7C)
Procedure: In the CLL-xenograft model, MEC-1 cells (3 × 10^6) were injected subcutaneously into NOD/scid gamma (NSG) mice. When the tumor volume reached 100 mm^3, mice received intraperitoneal injections of PBS, PKHB1, or 4N1K (200 μg in 200 μl of PBS) once a week. Tumor size was measured with a caliper, and tumor volume was calculated using the formula (length × width^2)/2 and expressed in cubic millimeters. Alternatively, at 28 d after the engraftment, XenoLight RediJect 2-DG 750 Probe (Caliper) was injected into the retro-orbital sinus to visualize tumor glucose uptake, which reflects cell proliferation. Fluorescence was measured using an in vivo imaging system FX Pro (Kodak), and pictures were analyzed with Carestream Molecular Imaging software.
To determine hemoglobin levels, tumors were excised from euthanized mice, weighed, and homogenized in PBS. After centrifugation, formic acid was added to the supernatant, and the hemoglobin concentration was calculated based on the absorbance at 405 nm.
To assess PCD, calreticulin exposure, and PLCγ1-Y783, dissociated tumors were digested in medium containing Liberase-TL (Roche), DNase-I (Calbiochem), and Collagenase-IV (Life Technologies). Single-cell suspension, obtained by filtering through a […] cell strainer, was analyzed by flow cytometry.

[4] = test system: CD19+/CD5- B cells (residual B cells); experiment: Cell death by Annexin-V/PI in residual B cells of CLL patients; format: cell-based, human; conditions: 200 μM, 2 h; n = 20 (Fig 1G)
Procedure: as §2, with “lymphocytes. […]” for “lymphocytes.”

CD19-/CD3+ T cells = experiment: Cell death by Annexin-V/PI in T cells of CLL patients; format: cell-based, human; conditions: 200 μM, 2 h; n = 8 (Fig 1G)
Procedure: as §2, with “lymphocytes. […]” for “lymphocytes.”

CLL cells = experiment: Caspase activity (FAM caspase detection kit) in CLL cells; format: cell-based, human; conditions: PKHB1 200 μM, 2 h; etoposide 250 μM, 12 h; representative CLL donor (Fig 2G)
MEC-1 cells = experiment: Cell death by Annexin-V/PI in MEC-1 cells; format: cell-based, human; conditions: PKHB1 200 μM, 2 h; etoposide 250 μM, 12 h (S7, S8 Figs)
Procedure: as §1
Annexin-V-APC (0.1 μg/ml; BD Biosciences) was used for the assessment of phosphatidylserine exposure, propidium iodide (PI, 0.5 μg/ml) for cell viability analysis, and tetramethylrhodamine ethyl ester (TMRE, 20 nM) for mitochondrial transmembrane potential (ΔΨm) quantification. PCD was recorded in a FACSCanto II (BD Biosciences) in the total population (10,000 cells), and data were analyzed using FlowJo software. […] Calreticulin cell surface exposure was recorded with anti-calreticulin-PE (clone FMC75; Assay Designs). […]

CD47 [5] = molecular target: CD47 (Homo sapiens, UniProt Q08722); experiment: Binding to CD47 (fluorescence polarization, isothermal titration calorimetry, microscale thermophoresis); conditions: isothermal titration calorimetry and microscale thermophoresis binding assays (methods per ref 82), read-out: Dissociation constant (Kd) to CD47
Sequence of CD47 (Homo sapiens, UniProt Q08722) (Q08722 19-323): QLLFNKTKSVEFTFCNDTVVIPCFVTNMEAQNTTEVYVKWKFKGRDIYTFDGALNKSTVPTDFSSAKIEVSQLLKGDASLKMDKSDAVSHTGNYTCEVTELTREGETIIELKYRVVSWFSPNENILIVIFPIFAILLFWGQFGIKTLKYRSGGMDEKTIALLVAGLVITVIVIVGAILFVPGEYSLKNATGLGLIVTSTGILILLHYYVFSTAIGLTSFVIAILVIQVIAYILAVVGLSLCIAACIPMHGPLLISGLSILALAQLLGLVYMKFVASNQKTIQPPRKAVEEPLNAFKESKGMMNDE
Excerpt: Supplementary file pmed.1001796.s002.tif: S2 Fig Primary structure of 4NGG, 4N1K, and PKHB1. In 4NGG, the two central valines of 4N1K were replaced by glycines (highlighted in red). In PKHB1, the N- and C-terminal lysines of 4N1K were replaced with their D counterparts (highlighted in green). […] (TIF) Click here for additional data file.

CD47 [6] = molecular target: T1, CD47 (UniProt Q08722 19-323); experiment: fluorescence polarisation + ITC + MST; not told; one Kd is printed for each peptide for the three methods together; the legend refers to ref. 82
T1 construct: CD47; in the cell death assays it is the endogenous CD47 on human CLL B cells; the CD47 preparation is not described; also called cell surface receptor CD47
T1 sequence (Q08722 19-323): as above

NCCOB(c1ccccc1)c1ccccc1 [2-APB, 2-aminoethoxydiphenyl borate]
Effect of pre-incubation on PKHB1-mediated cell death in CLL cells ([1]; 2 h): significantly decreased

CSCC[C@H](NC(=O)[C@@H](NC(=O)[C@@H](NC(=O)[C@H](Cc1ccc(O)cc1)NC(=O)[C@H](Cc1ccccc1)NC(=O)[C@H](CCCNC(=N)N)NC(=O)[C@@H](N)CCCCN)C(C)C)C(C)C)C(=O)N[C@@H](Cc1c[nH]c2ccccc12)C(=O)N[C@@H](CCCCN)C(=O)N[C@@H](CCCCN)C(=O)O [4N1K]
metabolised at 1 h, 10 mg/ml ([2]; human serum diluted 1:4 in RPMI 1640, 1-h incubation, serum proteins precipitated with ethanol/NaOH, read-out: Peptide degraded in human serum): > 90%
Cytotoxicity / PCD in CLL cells (Annexin-V and PI co-positivity) [1]: ~ 25%

CC(=O)OCOC(=O)CN(CC(=O)OCOC(C)=O)c1ccccc1OCCOc1ccccc1N(CC(=O)OCOC(C)=O)CC(=O)OCOC(C)=O [BAPTA-AM]
Effect of pre-incubation on PKHB1-mediated cell death in CLL cells ([1]; 2 h): significantly decreased

O=C(O)CN(CC(=O)O)c1ccccc1OCCOc1ccccc1N(CC(=O)O)CC(=O)O [BAPTA]
Effect of pre-incubation on PKHB1-mediated cell death in CLL cells ([1]; 2 h): abolished

CSCC[C@H](NC(=O)[C@@H](NC(=O)[C@@H](NC(=O)[C@H](Cc1ccc(O)cc1)NC(=O)[C@H](Cc1ccccc1)NC(=O)[C@H](CCCNC(=N)N)NC(=O)[C@H](N)CCCCN)C(C)C)C(C)C)C(=O)N[C@@H](Cc1c[nH]c2ccccc12)C(=O)N[C@@H](CCCCN)C(=O)N[C@H](CCCCN)C(=O)O [PKHB1]
Degradation during long-term incubation in human serum ([2]; long-term incubation): not degraded
Cytotoxicity / PCD in CLL cells (Annexin-V and PI co-positivity) [1]: ~ 49%
Blood, liver, kidney toxicity [3]: no toxic effect; also recorded: No blood, liver, or kidney toxicity
Anemia (hemoglobin levels within the engrafted tumors) (MEC-1 tumors): did not provoke anemia
Cytotoxicity in residual CD5- B lymphocytes of CLL patients [4]: ~ 5%
Cytotoxicity in T cells of CLL patients (CD19-/CD3+ T cells): ~ 10%

COc1ccc2c(c1)CC[C@@H]1[C@@H]2CC[C@]2(C)[C@@H](NCCCCCCN3C(=O)C=CC3=O)CC[C@@H]12 [U73122]
Effect of pre-incubation on PKHB1-mediated cell death in CLL cells ([1]; 2 h): significantly decreased PCD

O=C1CN(/N=C/c2ccc(-c3ccc([N+](=O)[O-])cc3)o2)C(O)=N1 [dantrolene]
Effect of pre-incubation on PKHB1-mediated cell death in CLL cells ([1]; 2 h): significantly decreased

COc1cc([C@@H]2c3cc4c(cc3[C@@H](O[C@@H]3O[C@@H]5CO[C@@H](C)O[C@H]5[C@H](O)[C@H]3O)[C@H]3COC(=O)[C@H]23)OCO4)cc(OC)c1O [etoposide]
Cell death response with microenvironment survival signals (sCD40L + IL-4 or M210B4 bone marrow stromal cells) ([1]; PKHB1 200 μM, 2 h, etoposide 250 μM, 12 h, n = 8 patients (Fig 2B)): significantly diminished
Activated caspases, positive cells (CLL cells): ~ 47%
Cell death response of MEC-1 cells (dysfunctional TP53) (MEC-1 cells): resistant to etoposide treatment

KRFYGGMWKK [4NGG]
Kd (CD47 [5]): 1000 µM

B1: 4N1K (peptide)
peptide: KRFYVVMWKK
notes: N-terminal lysine introduced to improve solubility, not part of thrombospondin-1; stretch of the C-terminal domain of thrombospondin-1 (TSP1); C-terminal lysine introduced to improve solubility, not part of thrombospondin-1; also called K-R-F-Y-V-V-M-W-K-K; TSP1-derived decapeptide; source: synthetic peptide (solid-phase synthesis, purified by reverse phase HPLC, purity greater than 95%)
Kd (CD47 [6]): 1.5 µM

B2: PKHB1 (peptide)
peptide: KRFYVVMWKK
modifications: D-lysine at the N-terminus and D-lysine at the C-terminus (printed as lower-case k)
notes: N-terminal lysine, not part of thrombospondin-1 (introduced in 4N1K to improve solubility); here the D analogue; stretch of the C-terminal domain of thrombospondin-1 (TSP1); C-terminal lysine, not part of thrombospondin-1 (introduced in 4N1K to improve solubility); 4N1K with its N- and C-terminal lysines replaced by their D counterparts; also called k-R-F-Y-V-V-M-W-K-k; source: synthetic peptide …
Kd (CD47 [6]): 0.4 µM
